In ChEMBL document CHEMBL4400519, “Indazolylketones as new multitarget cannabinoid drugs” (Eur J Med Chem, 2019):
Calls of active or inactive are those of the source. No cut-off for these calls is given here.

Columns and labels:
[1] = target: T1, Cannabinoid receptor (Mus musculus) (UniProt P47746+P47936); assay: Agonist activity at cannabinoid receptor in ICR mouse vas deferens assessed as inhibition of electrically induced contractions at 10^-7 M after 10 mins in presence of CB2 antagonist AM630 relative to control; assay type: protein assay
[2] = target: T1, Cannabinoid receptor (Mus musculus); assay: Agonist activity at cannabinoid receptor in ICR mouse vas deferens assessed as inhibition of electrically induced contractions at 10^-7 M after 10 mins relative to control; assay type: protein assay
[3] = target: T1, Cannabinoid receptor (Mus musculus); assay: Agonist activity at cannabinoid receptor in ICR mouse vas deferens assessed as inhibition of electrically induced contractions at 9 x 10^-7 M after 10 mins relative to control; assay type: protein assay
[4] = Antiproliferative activity against normal human derived lymphoblast cells at 5 uM after 72 hrs by MTT assay
[5] = target: T1, Cannabinoid receptor (Mus musculus); assay: Agonist activity at cannabinoid receptor in ICR mouse vas deferens assessed as inhibition of electrically induced contractions at 8.1 x 10^-6 M after 10 mins relative to control; assay type: protein assay
[6] = target: T1, Cannabinoid receptor (Mus musculus); assay: Agonist activity at cannabinoid receptor in ICR mouse vas deferens assessed as inhibition of electrically induced contractions at 1.82 x 10^-5 M after 10 mins in presence of CB1 antagonist AM251 relative to control; assay type: protein assay
[7] = target: T1, Cannabinoid receptor (Mus musculus); assay: Agonist activity at cannabinoid receptor in ICR mouse vas deferens assessed as inhibition of electrically induced contractions at 2.7 x 10^-6 M after 10 mins in presence of CB1 antagonist AM251 relative to control; assay type: protein assay
[8] = target: T1, Cannabinoid receptor (Mus musculus); assay: Agonist activity at cannabinoid receptor in ICR mouse vas deferens assessed as inhibition of electrically induced contractions at 8.1 x 10^-6 M after 10 mins in presence of CB1 antagonist AM251 relative to control; assay type: protein assay
[9] = target: T1, Cannabinoid receptor (Mus musculus); assay: Agonist activity at cannabinoid receptor in ICR mouse vas deferens assessed as inhibition of electrically induced contractions at 9 x 10^-7 M after 10 mins in presence of CB1 antagonist AM251 relative to control; assay type: protein assay
[10] = target: T1, Cannabinoid receptor (Mus musculus); assay: Agonist activity at cannabinoid receptor in ICR mouse vas deferens assessed as inhibition of electrically induced contractions at 3 x 10^-7 M after 10 mins relative to control; assay type: protein assay
[11] = tested on: SH-SY5Y; assay: Toxicity in human SH-SY5Y cells at 20 uM after 24 hrs by MTT assay; assay type: cell-based
[12] = target: T2, Cholinesterase (Homo sapiens, UniProt P06276); assay: Inhibition of human serum BChE using butyrylthiocholine as substrate by Ellman's assay
[13] = target: T1, Cannabinoid receptor (Mus musculus); assay: Agonist activity at cannabinoid receptor in ICR mouse vas deferens assessed as inhibition of electrically induced contractions at 3 x 10^-7 M after 10 mins in presence of CB1 antagonist AM251 relative to control; assay type: protein assay
[14] = species on record: Homo sapiens; assay: Antiproliferative activity against Alzheimer's patient derived lymphoblast cells at 5 uM in presence of CB2 antagonist AM630 after 72 hrs by MTT assay; assay type: functional
[15] = target: T1, Cannabinoid receptor (Mus musculus); assay: Agonist activity at cannabinoid receptor in ICR mouse vas deferens assessed as inhibition of electrically induced contractions at 2.7 x 10^-6 M after 10 mins in presence of CB2 antagonist AM630 relative to control; assay type: protein assay
[16] = target: T1, Cannabinoid receptor (Mus musculus); assay: Agonist activity at cannabinoid receptor in ICR mouse vas deferens assessed as inhibition of electrically induced contractions at 3 x 10^-7 M after 10 mins in presence of CB2 antagonist AM630 relative to control; assay type: protein assay
[17] = target: T1, Cannabinoid receptor (Mus musculus); assay: Agonist activity at cannabinoid receptor in ICR mouse vas deferens assessed as inhibition of electrically induced contractions at 1.82 x 10^-5 M after 10 mins relative to control; assay type: protein assay
[18] = target: T1, Cannabinoid receptor (Mus musculus); assay: Agonist activity at cannabinoid receptor in ICR mouse vas deferens assessed as inhibition of electrically induced contractions at 1.82 x 10^-5 M after 10 mins in presence of CB2 antagonist AM630 relative to control; assay type: protein assay
[19] = target: T1, Cannabinoid receptor (Mus musculus); assay: Agonist activity at cannabinoid receptor in ICR mouse vas deferens assessed as inhibition of electrically induced contractions at 8.1 x 10^-6 M after 10 mins in presence of CB2 antagonist AM630 relative to control; assay type: protein assay
[20] = target: T1, Cannabinoid receptor (Mus musculus); assay: Agonist activity at cannabinoid receptor in ICR mouse vas deferens assessed as inhibition of electrically induced contractions at 2.7 x 10^-6 M after 10 mins relative to control; assay type: protein assay
[21] = target: Beta-secretase 1 (Homo sapiens) (UniProt P56817); assay: Inhibition of human BACE1 at 10 uM incubated for 60 mins using rhodamine-EVNLDAEFK-quencher substrate by FRET assay
[22] = target: T3, Acetylcholinesterase (Homo sapiens, UniProt P22303); assay: Inhibition of human erythrocyte AChE using acetylthiocholine as substrate by Ellman's assay
[23] = species on record: Homo sapiens; assay: Antiproliferative activity against Alzheimer's patient derived lymphoblast cells at 5 uM after 72 hrs by MTT assay; assay type: functional
[24] = target: T1, Cannabinoid receptor (Mus musculus); assay: Agonist activity at cannabinoid receptor in ICR mouse vas deferens assessed as inhibition of electrically induced contractions at 9 x 10^-7 M after 10 mins in presence of CB2 antagonist AM630 relative to control; assay type: protein assay
[25] = Antioxidant activity assessed as trolox equivalent of APPH-induced radical scavenging activity by ORAC-FL assay; assay type: functional
[26] = target: T1, Cannabinoid receptor (Mus musculus); assay: Agonist activity at cannabinoid receptor in ICR mouse vas deferens assessed as inhibition of electrically induced contractions at 10^-7 M after 10 mins in presence of CB1 antagonist AM251 relative to control; assay type: protein assay
[27] = tested on: SH-SY5Y; assay: Neuroprotective activity against amyloid beta-induced neurodegeneration in human SH-SY5Y cells at 20 uM preincubated for 1 hr followed by amyloid beta addition and measured after 24 hrs in presence of CB2 antagonist AM630 by MTT assay; assay type: functional, cell-based
[28] = tested on: SH-SY5Y; assay: Neuroprotective activity against amyloid beta-induced neurodegeneration in human SH-SY5Y cells at 20 uM preincubated for 1 hr followed by amyloid beta addition and measured after 24 hrs by MTT assay; assay type: functional, cell-based
[29] = target: T3, Acetylcholinesterase; assay: Inhibition of human erythrocyte AChE at 10 uM using acetylthiocholine as substrate by Ellman's assay
[30] = target: T2, Cholinesterase; assay: Competitive inhibition of human serum BChE using butyrylthiocholine as substrate by Lineweaver-Burk plot analysis
[31] = target: T2, Cholinesterase; assay: Inhibition of human serum BChE at 10 uM using butyrylthiocholine as substrate by Ellman's assay

T3 sequence (P22303 whole entry): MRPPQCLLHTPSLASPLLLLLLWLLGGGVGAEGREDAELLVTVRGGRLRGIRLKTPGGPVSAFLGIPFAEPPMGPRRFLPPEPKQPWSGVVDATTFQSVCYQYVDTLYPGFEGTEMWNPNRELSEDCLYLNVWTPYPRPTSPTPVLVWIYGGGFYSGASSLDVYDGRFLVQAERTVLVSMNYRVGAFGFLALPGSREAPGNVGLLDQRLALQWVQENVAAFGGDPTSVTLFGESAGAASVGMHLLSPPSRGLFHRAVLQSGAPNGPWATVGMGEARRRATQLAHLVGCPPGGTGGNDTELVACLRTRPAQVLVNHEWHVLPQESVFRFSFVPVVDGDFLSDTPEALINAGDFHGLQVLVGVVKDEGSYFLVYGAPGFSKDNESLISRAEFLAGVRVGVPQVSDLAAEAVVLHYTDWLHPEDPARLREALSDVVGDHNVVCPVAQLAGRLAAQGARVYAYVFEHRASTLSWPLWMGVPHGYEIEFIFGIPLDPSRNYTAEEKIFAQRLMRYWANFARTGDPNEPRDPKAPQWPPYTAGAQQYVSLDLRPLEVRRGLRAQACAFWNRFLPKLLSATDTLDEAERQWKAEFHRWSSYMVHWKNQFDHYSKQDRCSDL
T2 sequence (P06276 whole entry): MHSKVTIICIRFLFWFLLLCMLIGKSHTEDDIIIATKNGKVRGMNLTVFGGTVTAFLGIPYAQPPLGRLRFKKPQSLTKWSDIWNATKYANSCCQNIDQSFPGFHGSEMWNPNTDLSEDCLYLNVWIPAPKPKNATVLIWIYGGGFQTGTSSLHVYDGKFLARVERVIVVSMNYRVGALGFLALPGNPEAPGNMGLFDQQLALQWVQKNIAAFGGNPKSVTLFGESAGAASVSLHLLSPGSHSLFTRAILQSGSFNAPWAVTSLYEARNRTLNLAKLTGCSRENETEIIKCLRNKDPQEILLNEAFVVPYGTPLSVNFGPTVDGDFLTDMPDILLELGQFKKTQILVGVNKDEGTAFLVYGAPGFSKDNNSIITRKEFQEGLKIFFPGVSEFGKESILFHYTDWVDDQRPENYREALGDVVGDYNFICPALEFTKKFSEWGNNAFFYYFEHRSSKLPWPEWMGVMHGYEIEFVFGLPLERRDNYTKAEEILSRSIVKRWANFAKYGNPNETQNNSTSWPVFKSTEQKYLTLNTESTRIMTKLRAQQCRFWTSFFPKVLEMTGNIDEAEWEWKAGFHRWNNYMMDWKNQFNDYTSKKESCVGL
Sequence of Beta-secretase 1 (Homo sapiens) (P56817 whole entry): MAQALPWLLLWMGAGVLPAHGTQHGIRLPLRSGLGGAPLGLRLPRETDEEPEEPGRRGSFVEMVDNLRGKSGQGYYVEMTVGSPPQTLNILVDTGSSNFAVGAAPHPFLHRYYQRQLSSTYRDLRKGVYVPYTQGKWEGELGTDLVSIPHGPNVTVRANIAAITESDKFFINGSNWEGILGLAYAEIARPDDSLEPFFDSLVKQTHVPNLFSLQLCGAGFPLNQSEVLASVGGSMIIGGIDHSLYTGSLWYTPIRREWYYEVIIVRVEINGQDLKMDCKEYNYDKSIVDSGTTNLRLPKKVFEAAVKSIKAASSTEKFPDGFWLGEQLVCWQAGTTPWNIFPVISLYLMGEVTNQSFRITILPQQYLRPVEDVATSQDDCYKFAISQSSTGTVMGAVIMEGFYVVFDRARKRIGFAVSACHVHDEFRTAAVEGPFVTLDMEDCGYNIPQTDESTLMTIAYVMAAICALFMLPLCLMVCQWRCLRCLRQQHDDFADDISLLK
T1 sequence (P47746 whole entry, looked up): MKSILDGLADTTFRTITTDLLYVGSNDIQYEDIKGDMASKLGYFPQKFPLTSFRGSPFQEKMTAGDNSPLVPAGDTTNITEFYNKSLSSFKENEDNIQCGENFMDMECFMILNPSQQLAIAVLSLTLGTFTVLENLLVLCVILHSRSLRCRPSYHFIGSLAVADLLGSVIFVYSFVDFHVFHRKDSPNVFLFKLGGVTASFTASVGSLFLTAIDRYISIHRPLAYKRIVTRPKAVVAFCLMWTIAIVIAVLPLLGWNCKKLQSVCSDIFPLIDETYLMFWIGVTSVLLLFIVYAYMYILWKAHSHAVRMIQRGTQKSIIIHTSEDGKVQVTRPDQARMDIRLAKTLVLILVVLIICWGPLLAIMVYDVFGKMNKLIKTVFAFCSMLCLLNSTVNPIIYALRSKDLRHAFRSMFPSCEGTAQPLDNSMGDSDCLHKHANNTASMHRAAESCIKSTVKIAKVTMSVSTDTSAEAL
T1 sequence (P47936 whole entry, looked up): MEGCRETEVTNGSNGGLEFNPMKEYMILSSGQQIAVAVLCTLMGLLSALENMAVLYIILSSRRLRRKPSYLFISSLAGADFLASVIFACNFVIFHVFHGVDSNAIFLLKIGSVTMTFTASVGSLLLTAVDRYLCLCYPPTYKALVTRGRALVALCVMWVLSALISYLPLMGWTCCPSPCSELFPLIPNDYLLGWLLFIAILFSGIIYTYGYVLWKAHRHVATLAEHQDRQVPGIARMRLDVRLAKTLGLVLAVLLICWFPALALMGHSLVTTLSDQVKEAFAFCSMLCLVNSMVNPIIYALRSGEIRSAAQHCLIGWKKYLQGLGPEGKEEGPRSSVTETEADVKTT

O=C(c1cccc(Cl)c1Cl)n1nc(OCCCN2CCCCC2)c2ccccc21
inhibition [1]: -3%
inhibition [2]: 1.4%
inhibition [3]: 14.3%
Activity [4]: Non-Toxic
inhibition [5]: 89.3%
inhibition [6]: 89.8%
inhibition [7]: 15.2%
inhibition [8]: 65.3%
inhibition [9]: 8.7%
inhibition [10]: 6.2%
Activity [11]: Toxic
IC50 [12]: 80 nM
inhibition [13]: 2%
Activity [14]: inactive
inhibition [15]: 18.2%
inhibition [16]: 0%
inhibition [17]: 96.6%
inhibition [18]: 85.5%
inhibition [19]: 62.7%
inhibition [20]: 27.4%
inhibition [21]: 45.1%
IC50 [22]: 17 µM
Activity [23]: Active
inhibition [24]: 10.4%
Activity [25]: inactive
inhibition [26]: -0.7%

O=C(c1ccccc1Cl)n1nc(OCCN2CCCC2)c2ccccc21
inhibition [1]: -2.5%
inhibition [2]: 1.5%
inhibition [3]: 10.8%
Activity [4]: Non-Toxic
Activity [27]: inactive
Activity [28]: Active
inhibition [5]: 45.9%
inhibition [6]: 21.1%
inhibition [7]: -2.2%
inhibition [8]: -2.6%
inhibition [9]: -1.2%
inhibition [10]: 4.9%
IC50 [12]: 1300 nM
inhibition [13]: -2.8%
Activity [14]: inactive
inhibition [15]: 8.8%
inhibition [16]: 0.3%
inhibition [17]: 75.4%
inhibition [18]: 29.3%
inhibition [19]: 15.8%
inhibition [20]: 15.1%
inhibition [21]: 9%
IC50 [22]: 9.7 µM
Activity [23]: Active
inhibition [24]: 3.5%
Activity [25]: inactive
inhibition [26]: -2.8%

O=C(c1ccc2ccccc2c1)n1nc(OCCCN2CCCCC2)c2ccccc21
inhibition [2]: -2.1%
inhibition [3]: 0.1%
inhibition [5]: 17.2%
inhibition [6]: 49.5%
inhibition [8]: 0.7%
inhibition [10]: -1%
IC50 [12]: 2100 nM
inhibition [15]: -9.7%
inhibition [29]: 33%
inhibition [17]: 41.9%
inhibition [18]: 49.1%
inhibition [19]: 20.9%
inhibition [20]: 1.2%
inhibition [21]: 38%
IC50 [22]: > 10 µM
Activity [25]: inactive
inhibition [30]: Active

CCCC(C)(C)c1ccc2c(c1)OC(C)(C)[C@@H]1CC=C(C)C[C@@H]21
Activity [4]: Non-Toxic
Activity [23]: Active

O=C(c1cccc(Cl)c1Cl)n1nc(OCCN2CCCC2)c2ccccc21
inhibition [1]: 0%
inhibition [2]: 1.6%
inhibition [3]: 17.3%
Activity [4]: Non-Toxic
Activity [27]: inactive
Activity [28]: Active
inhibition [5]: 56.3%
inhibition [6]: 80.4%
inhibition [7]: 13%
inhibition [8]: 44.8%
inhibition [9]: 7.1%
inhibition [10]: 5.6%
IC50 [12]: 230 nM
inhibition [13]: 3.4%
Activity [14]: inactive
inhibition [15]: 14.2%
inhibition [16]: 3.4%
inhibition [17]: 80.8%
inhibition [18]: 52.9%
inhibition [19]: 30.4%
inhibition [20]: 27.8%
inhibition [21]: 32.6%
IC50 [22]: > 10 µM
Activity [23]: Active
inhibition [24]: 7.9%
Activity [25]: 0.41 equiv
inhibition [26]: -0.3%

O=C(Cc1ccc(Cl)cc1)n1nc(OCCCN2CCCCC2)c2ccccc21
inhibition [1]: -7.8%
inhibition [2]: -4.5%
inhibition [3]: 0.4%
inhibition [5]: 67.4%
inhibition [6]: 83.5%
inhibition [7]: 12.4%
inhibition [8]: 61.8%
inhibition [9]: -2.2%
inhibition [10]: -4.8%
IC50 [12]: > 10000 nM
inhibition [13]: -6.2%
inhibition [15]: 19.7%
inhibition [29]: 43%
inhibition [16]: -3.2%
inhibition [17]: 94.2%
inhibition [31]: 46%
inhibition [18]: 96.1%
inhibition [19]: 86.6%
inhibition [20]: 7.3%
inhibition [21]: 50%
IC50 [22]: > 10 µM
inhibition [24]: 2.4%
Activity [25]: inactive
inhibition [26]: -5.5%

O=C(c1ccc2ccccc2c1)n1nc(OCCN2CCCCC2)c2ccccc21
inhibition [2]: 0.3%
inhibition [3]: -3.5%
inhibition [5]: 4%
inhibition [10]: -1.2%
IC50 [12]: 4000 nM
inhibition [29]: 43%
inhibition [17]: 18.2%
inhibition [20]: -2.8%
inhibition [21]: 50%
IC50 [22]: > 10 µM
Activity [25]: inactive
inhibition [30]: Active

O=C(c1cccc(Cl)c1F)n1nc(OCCCN2CCCCC2)c2ccccc21
inhibition [1]: -1.5%
inhibition [2]: 9.6%
inhibition [3]: 18.7%
Activity [4]: Non-Toxic
inhibition [5]: 54.7%
inhibition [6]: 76.1%
inhibition [7]: 12.9%
inhibition [8]: 54.9%
inhibition [9]: 4.3%
inhibition [10]: 13.9%
Activity [11]: Toxic
IC50 [12]: 800 nM
inhibition [13]: -5.3%
Activity [14]: inactive
inhibition [15]: -2.8%
inhibition [29]: 48%
inhibition [16]: 1.7%
inhibition [17]: 80.5%
inhibition [18]: 58.3%
inhibition [19]: 12.9%
inhibition [20]: 24.9%
inhibition [21]: 34%
IC50 [22]: > 10 µM
Activity [23]: Active
inhibition [24]: -3.8%
Activity [25]: inactive
inhibition [26]: -7.1%

O=C(c1ccccc1OCc1ccccc1)n1nc(OCCCN2CCCCC2)c2ccccc21
inhibition [1]: -3.1%
inhibition [3]: 6.4%
Activity [4]: Non-Toxic
inhibition [5]: 74.4%
inhibition [6]: 74.8%
inhibition [7]: -1%
inhibition [8]: 26.4%
inhibition [9]: -4.5%
Activity [11]: Toxic
IC50 [12]: 2.5 nM
inhibition [13]: -6.8%
Activity [14]: inactive
inhibition [15]: -3%
inhibition [29]: 31%
inhibition [16]: 1.1%
inhibition [17]: 94.7%
inhibition [18]: 77.5%
inhibition [19]: 29.7%
inhibition [20]: 31.4%
inhibition [21]: 38.4%
IC50 [22]: > 10 µM
Activity [23]: Active
inhibition [24]: -0.5%
Activity [25]: inactive
inhibition [26]: -6.8%

O=C(c1cccc2ccccc12)n1nc(OCCCN2CCCCC2)c2ccccc21
inhibition [1]: -8.2%
inhibition [2]: 1%
inhibition [3]: 7.9%
inhibition [5]: 31.5%
inhibition [6]: 18.4%
inhibition [7]: -2.4%
inhibition [8]: 2.7%
inhibition [9]: -3.7%
inhibition [10]: 3%
IC50 [12]: 0.07 nM
inhibition [13]: -5%
inhibition [15]: 14.2%
inhibition [29]: 43%
inhibition [16]: -5.4%
inhibition [17]: 55.9%
inhibition [18]: 56.7%
inhibition [19]: 41%
inhibition [20]: 16%
inhibition [21]: 42%
IC50 [22]: > 10 µM
inhibition [24]: 0.1%
Activity [25]: inactive
inhibition [26]: -6.4%
